The IC50 is the midpoint of a concentration-inhibition curve.

We go through two compounds from ChEMBL document CHEMBL1667833, “Potent radiosensitizing agents: 5-methylselenyl- and 5-phenylselenyl-methyl-2'-deoxyuridine” (Bioorg Med Chem Lett, 2011).

Assay [1] relates to NCI-H460. Put plainly: Cytotoxicity against human H460 cells assessed as cell viability after 72 hrs by calorimetric assay. Type of assay: functional, cell-based. The conditions noted are these: NCI-H460, 72 h.
Assay [2] has as its system NCI-H460. Put plainly: Potentiation of gamma-irradiation-induced cytotoxicity against human H460 cells assessed as dose enhancement ratio at 50 uM administered 24 hrs before 2-8 Gy irradiation measured after 12 days. Type of assay: functional.
In assay [3] the test system is NCI-H460. Put plainly: Potentiation of gamma-irradiation-induced cytotoxicity against human H460 cells assessed as dose enhancement ratio at 300 uM administered 24 hrs before 2-8 Gy irradiation measured after 12 days. In kind it is functional.

As for `C[Se]Cc1cn([C@H]2C[C@H](O)[C@@H](CO)O2)c(=O)[nH]c1=O`, the IC50 in the assay on NCI-H460 [1] was 100 µM. Further, the Ratio in the assay with NCI-H460 [2] turned out to be 1.2.

Regarding `O=c1[nH]c(=O)n([C@H]2C[C@H](O)[C@@H](CO)O2)cc1C[Se]c1ccccc1`, the IC50 in the assay with NCI-H460 [1] stood at 500 µM. In the assay with NCI-H460 [3], the Ratio is listed as 1.12.
